The source of these data is patent US9108969B2, “Substituted tricyclic acid derivatives as S1P1 receptor agonists useful in the treatment of autoimmune and inflammatory disorders” (Arena Pharmaceuticals, Inc., priority 2008, dated 2015).

Each structure is given as a SMILES string.

One series addresses T1, human S1P1 receptor (Homo sapiens, UniProt P21453).
T1 construct: expressed in transfected cells; host or cells: CHO-K1 (ATCC CCL-61), stably transfected
Nature of the series: HTRF assay for direct cAMP measurement (S1P1 agonism). The class given is cell-based. The conditions noted are these: recombinant CHO-K1 cells stably transfected with S1P1; decrease of cAMP. From the text: Compounds were screened for agonists of the S1P1 receptor (e.g., human S1P1 receptor) using the HTRF® assay for direct cAMP measurement (Gabriel et al., Assay and Drug Development Technologies, 1:291-303, 2003) and recombinant CHO-K1 cells stably transfected with S1P1. CHO-K1 cells were obtained from ATCC® (Manassas, Va.; Catalog #CCL-61). An agonist of the S1P1 receptor was detected in the HTRF® assay for direct cAMP measurement as a compound which decreased cAMP concentration. HTRF® assay also was used to determine EC50 values for S1P1 receptor agonists.
Principle of the Assay:HTRF® assay kit was purchased from Cisbio-US, Inc. (Bedford, Mass.; Catalog #62AM4PEC). The HTRF® assay supported by the kit is a competitive immunoassay between endogenous cAMP produced by the CHO-K 1 cells and tracer cAMP labeled with the dye d2. The tracer binding is visualized by a monoclonal anti-cAMP antibody labeled with Cryptate. The specific signal (i.e., fluorescence resonance energy transfer, FRET) is inversely proportional to the concentration of unlabeled cAMP in the standard or sample.
Standard Curve:The fluorescence ratio (665 nm/620 nm) of the standards (0.17 to 712 nM cAMP) included in the assay was calculated and used to generate a cAMP standard curve according to the kit manufacturer's instructions. The fluorescence ratio of the samples (test compound or compound buffer) was calculated and used to deduce respective cAMP concentrations by reference to the cAMP standard curve.
Setup of the Assay: The HTRF® assay was carried out using a two-step protocol essentially according to the kit manufacturer's instructions, in 20 μL total volume per well in 384-well plate format (ProxiPlates; PerkinElmer, Fremont, Calif.; catalog #6008280). To each of the experimental wells was transferred 1500 recombinant CHO-K1 cells in 5 μL phosphate buffered saline containing calcium chloride and magnesium chloride (PBS+; Invitrogen, Carlsbad, Calif.; catalog #14040) supplemented with IBMX (250 μM) and rolipram (20 μM) (phosphodiesterase inhibitors; Sigma-Aldrich, St. Louis, Mo.; catalog #15879 and catalog #R6520, respectively), followed by test compound in 5 μL compound buffer (PBS+ supplemented with […] (water-soluble forskolin derivative; SignaGen Laboratories, Gaithersburg, Md.; catalog #PKI-NKH477-010)) or 5 μL compound buffer. The plate was then incubated at room temperature for 1 h. To each well was then added 5 μL cAMP-d2 conjugate in lysis buffer and 5 μL Cryptate conjugate in lysis buffer according to the kit manufacturer's instructions. The plate was then further incubated at room temperature for 1 hour, after which the assay plate was read.
Assay Readout: HTRF® readout was accomplished using a PHERAstar (BMG LABTECH Inc., Durham, N.C.) or EnVision™ (PerkinElmer, Fremont Calif.) microplate reader.

For series [1], the system named is ovariectomy-induced osteoporosis. The following applies: mice; cited from earlier work.
For series [2], the system named is experimental autoimmune myasthenia gravis (EAMG). The following applies: prophylactic oral administration, 1 mg/kg, three times a week, C57BL/6 mice; cited from earlier work.
Series [3] concerns spared nerve injury model. The following applies: cited from earlier work.
For a further series, the system named is multiple sclerosis. The following applies: patients with multiple sclerosis, Phase II; cited from earlier work.
For series [4], the system named is VEGF-induced vascular permeability. The following applies: mice, oral administration; cited from earlier work.
The conditions of series [5]: attributed to agonism of the S1P3 receptor; cited from earlier work.
In series [6] the test system is experimental autoimmune uveoretinitis. The conditions noted are these: short-term high dose; cited from earlier work.
The subject of series [7] is contact hypersensitivity (CHS). The conditions noted are these: murine; cited from earlier work.
For a further series, the system named is peripheral lymphocytes. The following applies: Hale et al. 2004; cited from earlier work.
Series [8] concerns peripheral blood lymphocyte (PBL) count. Nature of the series: Rat peripheral lymphocyte lowering (PLL) assay. It is filed as in vivo, Male Sprague-Dawley rats. The following applies: 1 mg/kg intravenous dose, 5 h post-dose, FIG. 12 and 13. Here is the method: Animals: Male Sprague-Dawley rats (Charles River Laboratories, Hollister, Calif.) were housed and maintained in humidity (40 to 60%) and temperature (68 to 72° F.) controlled facility on a 12 h:12 h light/dark cycle (lights on at 6:30 am) with free access to food (Harlan Teklad, Orange, Calif., Rodent Diet 8604) and water. Rats were allowed (approximately) one week of habituation to the animal facility before testing.
PLL Assay: Rats were given a 1 mg/kg intravenous dose of the first enantiomer isolated after resolution of compound 12 by HPLC (retention time: 15 min per the conditions reported in Example 1.3), or dosing vehicle (40% hydroxypropyl-cyclodextrin (HPCD)) in a total volume of 1 mL/kg. Peripheral blood samples were collected at 5 h post-dose. Blood was collected via indwelling catheter. A complete cell count (CBC), including lymphocyte count, was obtained using a CELL-DYN® 3700 (Abbott Laboratories, Abbott Park, Ill.) instrument. Results are presented in FIG. 12, in which peripheral blood lymphocyte (PBL) count is shown for the 5 hour group.
Similarly, rats were given a 1 mg/kg intravenous dose of the second enantiomer isolated after resolution of compound 12 by HPLC (retention time: 18 min per the conditions reported in Example 1.3), or dosing vehicle (40% hydroxypropyl-cyclodextrin (HPCD)) in a total volume of 1 mL/kg. […]

For series [9] the test system is unchanged. Nature of the series: Mouse peripheral lymphocyte lowering (PLL) assay. It is filed as in vivo, Male BALB/c mice. The following applies: oral dose, 5 hours post-dose, FIG. 11. Here is the method:
Animals: Male BALB/c mice (Charles River Laboratories, Wilmington, Mass.) were housed four per cage and maintained in a humidity-controlled (40 to 60%) and temperature-controlled (68 to 72° F.) facility on a 12 h:12 h light/dark cycle (lights on at 6:30 am) with free access to food (Harlan Teklad, Orange, Calif., Rodent Diet 8604) and water. Mice were allowed one week of habituation to the animal facility before testing.
PLL Assay: Mice were given an oral dose of Compound 2 or dosing vehicle (0.5% methylcellulose) in a total volume of 10 mL/kg. Peripheral blood samples were collected at 5 hours post-dose. The mice were anesthetized with isoflurane and blood was collected via cardiac puncture. A complete cell count (CBC), including lymphocyte count, was obtained using a CELL-DYN® 3700 (Abbott Laboratories, Abbott Park, Ill.) instrument. Results are presented in FIG. 11, in which peripheral blood lymphocyte (PBL) count is shown for the 5 hour group.

Series [10] has as its system collagen-induced arthritis. Description: Collagen-induced arthritis assay. The following applies: rat, 0.3, 1 and 3 mg/kg p.o. q.d. day 0 through day 16, FIG. 14. The class given is in vivo, Female Lewis rats. Here is the method:
Female Lewis rats were used in this study. Acclimated animals were anesthetized with isoflurane and given the first collagen injection (day 0). On day 6, they were anesthetized again for the second collagen injection. Collagen was prepared by making a 4 mg/mL solution in 0.01 N acetic acid. Equal volumes of collagen and incomplete Freund's adjuvant were emulsified by hand mixing until a bead of this material held its form when placed in water. Each animal received 300 μL of the mixture each time, spread over 3 subcutaneous sites on the back.
Treatment (p.o., q.d., 5 mL/kg dosing volume) began on day 0 and continued through day 16 with vehicle or compounds given at 24 h intervals. Rats were weighed on days 0, 3, 6 and 9 through 17 and caliper measurements of the ankles taken on days 9 through 17.
The second enantiomer isolated after resolution of compound 12 by HPLC (retention time: 18 min per the conditions reported in Example 1.3), was dosed at 0.3, 1 and 3 mg/kg.

T1 sequence (P21453 whole entry): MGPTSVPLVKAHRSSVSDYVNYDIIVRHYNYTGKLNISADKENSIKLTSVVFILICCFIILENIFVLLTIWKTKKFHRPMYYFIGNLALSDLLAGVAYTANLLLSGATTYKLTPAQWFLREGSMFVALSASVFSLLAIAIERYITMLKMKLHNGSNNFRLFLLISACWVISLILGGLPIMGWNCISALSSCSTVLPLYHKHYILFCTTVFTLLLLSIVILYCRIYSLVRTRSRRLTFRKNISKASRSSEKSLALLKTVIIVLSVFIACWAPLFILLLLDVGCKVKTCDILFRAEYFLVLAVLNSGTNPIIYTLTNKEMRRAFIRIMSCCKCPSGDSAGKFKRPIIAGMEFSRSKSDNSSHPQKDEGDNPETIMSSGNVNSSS

With `O=C(O)CC1CCn2c1c(I)c1cc(OCc3ccc(C4CCCC4)c(C(F)(F)F)c3)ccc12` (centres unmarked) [Compound 10, 2-(7-(4-cyclopentyl-3-(trifluoromethyl)benzyloxy)-9-iodo-2,3-dihydro-1H-pyrrolo[1,2-a]indol-1-yl)acetic acid], on human S1P1 receptor, the EC50 (in general, the midpoint of the concentration-response curve) amounted to 11 pM. Same read-out and setting: to `CC(C)Oc1ccc(COc2ccc3c(c2)cc2n3CCC2CC(=O)O)cc1C#N` (centres unmarked) [Compound 6, 2-(7-(3-cyano-4-isopropoxybenzyloxy)-2,3-dihydro-1H-pyrrolo[1,2-a]indol-1-yl)acetic acid] belongs 239 pM.

As to `O=C(O)CC1CCn2c1c(C1CCC1)c1cc(OCc3ccc(C4CCCC4)c(C(F)(F)F)c3)ccc12` (centres unmarked) [Compound 11, 2-(9-cyclobutyl-7-(4-cyclopentyl-3-(trifluoromethyl)benzyloxy)-2,3-dihydro-1H-pyrrolo[1,2-a]indol-1-yl)acetic acid], the concentration giving a half-maximal response (EC50) at human S1P1 receptor was determined as 5200 pM.

As for `CCCCCCCCc1ccc(CCC(N)(CO)CO)cc1` [FTY720], the ovariectomy-induced osteoporosis entry in [1] is listed as “relieved ovariectomy-induced osteoporosis”. The “development of EAMG” value in series [2] is “completely prevented the development of experimental autoimmune myasthenia gravis”. Further, in series [3], the nociceptive behavior result was “reduce the nociceptive behavior”. In addition, in the series on multiple sclerosis, the “MRI lesions and clinical disease activity” value was “reduce the number of lesions detected by magnetic resonance imaging (MRI) and clinical disease activity”. In addition, the VEGF-induced vascular permeability result in [4] was “potently blocked VEGF-induced vascular permeability”. In series [5], the “adverse event in clinical trials” value is given as “transient asymptomatic bradycardia”. Also, the ocular infiltrates result in [6] was “rapidly reduced ocular infiltrates”. For the same molecule, in series [7], the “initiation of contact hypersensitivity” value is listed as “impair initiation of murine contact hypersensitivity”. The “induction of lymphopenia (peripheral lymphocyte lowering)” value in the series with peripheral lymphocytes was “rapidly and reversibly induce lymphopenia”. As for `CC(C)Cc1ccc(COc2ccc3c(c2)cc2n3CCC2CC(=O)O)cc1C(F)(F)F` (centres unmarked) [Compound 4, 2-(7-(4-isobutyl-3-(trifluoromethyl)benzyloxy)-2,3-dihydro-1H-pyrrolo[1,2-a]indol-1-yl)acetic acid], the EC50 on human S1P1 receptor came out at 321 pM. Take `O=C(O)CC1CCn2c1nc1cc(OCc3ccc(C4CCCC4)c(C(F)(F)F)c3)ccc12` (centres unmarked) [Compound 14, 2-(6-(4-cyclopentyl-3-(trifluoromethyl)benzyloxy)-2,3-dihydro-1H-benzo[d]pyrrolo[1,2-a]imidazol-3-yl)acetic acid]: the EC50 on human S1P1 receptor was 6300 pM. As for `O=C(O)CC1CCn2c1cc1cc(OCc3ccc(C4CCCC4)c(C(F)(F)F)c3)ccc12` (stereo not drawn) [first enantiomer isolated after resolution of compound 12 by HPLC, 2-(7-(4-cyclopentyl-3-(trifluoromethyl)benzyloxy)-2,3-dihydro-1H-pyrrolo[1,2-a]indol-1-yl)acetic acid], in series [8], the “peripheral blood lymphocyte (PBL) lowering compared to vehicle” value was “exhibited activity for inducing PBL lowering (lymphopenia)”. As to `N#Cc1cc(COc2ccc3c(c2)cc2n3CCC2CC(=O)O)cc(OC(F)(F)F)c1` (centres unmarked) [Compound 2, 2-(7-(3-cyano-5-(trifluoromethoxy)benzyloxy)-2,3-dihydro-1H-pyrrolo[1,2-a]indol-1-yl)acetic acid], in [9], the “peripheral blood lymphocyte (PBL) lowering compared to vehicle” value was “exhibited activity for inducing PBL lowering (lymphopenia)”. `O=C(O)CC1CCn2c1cc1cc(OCc3ccc(C4CCCC4)c(C(F)(F)F)c3)ccc12` (stereo not drawn) [second enantiomer isolated after resolution of compound 12 by HPLC, 2-(7-(4-cyclopentyl-3-(trifluoromethyl)benzyloxy)-2,3-dihydro-1H-pyrrolo[1,2-a]indol-1-yl)acetic acid]: the “reduction of mean ankle diameter compared to vehicle” value in series [10] is “exhibited activity for reducing mean ankle diameter”.
